Laboratory results from patent US5962466A, “Reduction of hair growth using inhibitors of matrix metalloproteinases” (priority 1998, dated 1999).
Like-named read-outs stand apart in the source and are kept apart here.

Columns and labels:
[1] = tested on: flank organ hair growth; test: Golden Syrian hamster assay (flank organ hair mass); format: in vivo; details: topical, 13 applications
From the text: Male intact Golden Syrian hamsters are considered acceptable models for human beard hair growth in that they display oval shaped flank organs, one on each side, each about 8 mm. in major diameter, which grow thick black and coarse hair similar to human beard hair. These organs produce hair in response to androgens in the hamster. To evaluate the effectiveness of a composition including an inhibitor of an MMP, the flank organs of each of a group of hamsters are depilated by applying a thioglycolate based chemical depilatory (Surgex). To one organ of each animal 10 μl. of vehicle alone once a day is applied, while to the other organ of each animal an equal amount of vehicle containing an inhibitor of a matrix metalloproteinase is applied. After thirteen applications (one application per day for five days a week), the flank organs are shaved and the amount of recovered hair (hair mass) from each is weighed. Percent-reduction of hair growth is calculated by subtracting the hair mass (mg) value of the test compound treated side from the hair mass value of the vehicle treated side; the delta value obtained is then divided by the hair mass value of the vehicle treated side, and the resultant number is multiplied by 100.
The above-described assay will be referred to herein as the "Golden Syrian hamster" assay.

[2] = biological target: T1, MMP-2 (72 kD collagenase) (Mesocricetus auratus, UniProt A0A1U7R1N2); test: Zymographic assay of MMP-2 in flank organ hair follicle homogenates; format: biochemical, hamster; details: read-out: Percent Inhibition of Flank Organ MMP-2 Collagenase Activity
T1 construct: Flank organ hair follicles were removed from untreated hamsters and homogenized in a buffer; from tissue; host or cells: hamster flank organ hair follicle homogenate
Method: (§1) The matrix metalloproteinases MMP-2 (72 kD collagenase) and MMP-9 (92 kD collagenase) were assayed in flank organ hair follicle homogenates using a zymographic assay. Zymography is an electrophoretic technique used to identify proteolytic activity in enzymes separated in polyacrylamide gels under nondenaturing conditions (Kleiner and Stetler-Stevenson, Analytical Biochemistry 218: 325-329, 1994). Flank organ hair follicles were removed from untreated hamsters and homogenized in a buffer containing 25 mM Tris, pH 7.5, and 50 mM sucrose. Samples of the homogenate were added to an equal volume of zymogram sample buffer containing 63 mM Tris-HCl, pH 6.8, 10% glycerol, 2% SDS, and 0.0025% bromophenol blue. (Note: all buffers and acrylamide gels were obtained from Novex, San Diego, Calif.). The samples were incubated for 10 minutes at room temperature and then loaded onto a precast 10% Tris-Glycine gel with 0.1% gelatin incorporated throughout the gel. The gel was electrophoresed at 125 constant volts for about 90 minutes. The gel was incubated for 30 minutes in renaturing buffer consisting of 2.5% triton X-100 followed by incubation in developing buffer which contained 10 mM Tris-base, 40 mM Tris-HCl, 200 mM NaCl, 5 mM CaCl2, and 0.02% Brij 35. The developing buffer was decanted after 30 minutes and replaced with fresh buffer for incubation overnight.
(§2) For inhibition experiments, the inhibitor was included in the renaturing and development buffer steps. The gel was stained with Coomassie blue 0.25% for 1 hour and then destained overnight. Transparent bands were visualized against a blue background. MMP-2 and MMP-9 standards were supplied by Oncologix (Gaithersburg, Md.). The relative degree of digestion, representing collagenase activity, was quantitated by scanning photographs of the gels using Adobe Photoshop (Adobe Systems Inc., Mountain View, Calif.) and IPLab Gel (Signal Analytics, Vienna, Va.) software. The images were digitally inverted so that the integrations of bands would be reported as positive values. This method of analysis was standardized with respect to protein concentration.

[3] = biological target: T2, MMP-9 (92 kD collagenase) (Mesocricetus auratus, UniProt A0A1U7R3J7); test: Zymographic assay of MMP-9 in flank organ hair follicle homogenates; format: biochemical, hamster; details: read-out: Percent Inhibition of Flank Organ MMP-9 Collagenase Activity
T2 construct: Flank organ hair follicles were removed from untreated hamsters and homogenized in a buffer; from tissue; host or cells: hamster flank organ hair follicle homogenate
Method: as §1, §2

T2 sequence (A0A1U7R3J7 20-718): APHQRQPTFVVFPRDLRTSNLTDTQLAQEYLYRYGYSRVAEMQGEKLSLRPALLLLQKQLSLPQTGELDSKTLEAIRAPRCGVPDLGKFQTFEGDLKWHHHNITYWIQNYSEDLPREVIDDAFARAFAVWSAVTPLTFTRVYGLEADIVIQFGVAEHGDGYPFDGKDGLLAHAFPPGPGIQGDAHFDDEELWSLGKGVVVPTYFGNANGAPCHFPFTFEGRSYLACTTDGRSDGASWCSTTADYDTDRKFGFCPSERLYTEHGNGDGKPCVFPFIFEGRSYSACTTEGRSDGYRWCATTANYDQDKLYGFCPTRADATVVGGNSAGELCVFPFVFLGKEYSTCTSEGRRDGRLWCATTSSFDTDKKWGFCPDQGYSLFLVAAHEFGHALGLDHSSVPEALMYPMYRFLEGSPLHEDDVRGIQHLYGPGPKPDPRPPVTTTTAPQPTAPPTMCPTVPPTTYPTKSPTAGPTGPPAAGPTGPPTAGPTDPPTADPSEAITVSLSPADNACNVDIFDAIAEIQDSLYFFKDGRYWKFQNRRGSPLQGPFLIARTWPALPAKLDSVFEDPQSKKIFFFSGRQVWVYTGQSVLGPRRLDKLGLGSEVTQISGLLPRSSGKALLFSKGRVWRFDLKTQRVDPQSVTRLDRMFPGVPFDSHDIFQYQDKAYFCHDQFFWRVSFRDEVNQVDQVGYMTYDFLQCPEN
T1 sequence (A0A1U7R1N2 30-662): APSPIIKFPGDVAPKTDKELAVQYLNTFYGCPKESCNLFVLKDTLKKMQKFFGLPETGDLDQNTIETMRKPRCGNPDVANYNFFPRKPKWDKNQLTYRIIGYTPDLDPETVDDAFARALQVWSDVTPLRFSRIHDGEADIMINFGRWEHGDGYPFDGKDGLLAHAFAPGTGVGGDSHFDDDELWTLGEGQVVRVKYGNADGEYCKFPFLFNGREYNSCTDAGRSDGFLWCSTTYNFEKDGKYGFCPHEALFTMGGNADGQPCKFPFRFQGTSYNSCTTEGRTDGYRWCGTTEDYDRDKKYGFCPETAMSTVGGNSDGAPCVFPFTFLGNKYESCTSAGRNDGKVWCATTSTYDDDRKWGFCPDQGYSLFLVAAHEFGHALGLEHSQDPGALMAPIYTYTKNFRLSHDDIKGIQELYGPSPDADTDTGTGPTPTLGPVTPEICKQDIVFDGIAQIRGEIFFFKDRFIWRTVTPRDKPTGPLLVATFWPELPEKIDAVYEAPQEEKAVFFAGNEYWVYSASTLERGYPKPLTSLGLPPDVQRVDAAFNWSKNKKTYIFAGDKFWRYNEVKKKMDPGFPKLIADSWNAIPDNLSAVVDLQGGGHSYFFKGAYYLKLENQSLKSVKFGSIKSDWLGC

SMILES | inhibition at 1000 µM ([2]; concentration 1 mM) | inhibition at 1000 µM ([3]; concentration 1 mM) | inhibition at 100 µM [2] | inhibition at 500 µM [2] | % Reduction of hair mass ([1]; dose 10%, Vehicle A, pH 4.0) | Hair Mass (mg) Treated ([1]; dose 10%, Vehicle A, pH 4.0) | inhibition at 100 µM ([3]; concentration 0.1 mM) | inhibition at 500 µM ([3]; concentration 0.5 mM) | also measured
O=Cc1ccc(O)c(O)c1 [Protocatechuic aldehyde, 3,4-dihydroxybenzaldehyde] |  |  |  |  |  |  |  |  | % Reduction of hair mass ([1]; dose 10%, Vehicle A, pH 3.5): 32 ± 9%; Hair Mass (mg) Treated ([1]; dose 10%, Vehicle A, pH 3.5): 0.92 ± .13 mg
CN(C)C1C(O)=C(C(N)=O)C(=O)C2(O)C(O)=C3C(=O)c4c(O)cccc4C(C)(O)C3CC12 (stereo not drawn) [Tetracycline, 4-(dimethylamino)-1,4,4a,5,5a,6,11,12a-octahydro-3,6,10,12,12a-pentahydroxy-6-methyl-1,11-dioxo-2-naphthacenecarboxamide] |  |  | 31% | 64% |  |  |  |  | % Reduction of hair mass ([1]; dose 10%, Vehicle B, pH 4.5): 56 ± 9%; Hair Mass (mg) Treated ([1]; dose 10%, Vehicle B, pH 4.5): 0.67 ± .10 mg; inhibition at 1000 µM [2]: 100%; inhibition at 100 µM [3]: 49%; inhibition at 500 µM [3]: 70%; inhibition at 1000 µM [3]: 100%
c1cnc2c(c1)ccc1cccnc12 [1,10-Phenanthroline, 1,10-phenanthroline] |  |  | 100% | 100% |  |  | 100% | 100% | % Reduction of hair mass ([1]; dose 5%, Vehicle A, pH 7.0): 45 ± 9%; Hair Mass (mg) Treated ([1]; dose 5%, Vehicle A, pH 7.0): 1.40 ± .24 mg
C[C@H]1c2cccc(O)c2C(O)=C2C(=O)[C@]3(O)C(O)=C(C(N)=O)C(=O)[C@@H](N(C)C)[C@@H]3[C@@H](O)[C@@H]21 [Doxycycline, α-6-deoxy-5-hydroxytetracycline] |  |  |  |  |  |  | 28% | 100% | % Reduction of hair mass ([1]; dose 10%, Vehicle A, pH 5.5): 27 ± 9%; Hair Mass (mg) Treated ([1]; dose 10%, Vehicle A, pH 5.5): 1.73 ± .22 mg; inhibition at 100 µM ([2]; concentration 0.1 mM): 89%; inhibition at 500 µM ([2]; concentration 0.5 mM): 100%

More lines, main results first:

inhibition at 1000 µM ([2]; concentration 1 mM) | inhibition at 1000 µM ([3]; concentration 1 mM) | SMILES | inhibition at 100 µM [2] | inhibition at 500 µM [2] | % Reduction of hair mass ([1]; dose 10%, Vehicle A, pH 4.0) | Hair Mass (mg) Treated ([1]; dose 10%, Vehicle A, pH 4.0) | inhibition at 100 µM ([3]; concentration 0.1 mM) | inhibition at 500 µM ([3]; concentration 0.5 mM) | also measured
100% | 100% | C=C1c2cccc(O)c2C(=O)C2=C(O)[C@]3(O)C(=O)C(C(N)=O)=C(O)[C@@H](N(C)C)[C@@H]3[C@@H](O)[C@H]12 [Methacycline, 6-methylene oxytetracycline] |  |  | 57 ± 9% | 0.68 ± .11 mg |  |  | 
100% | 100% | CN(C)c1ccc(O)c2c1C[C@H]1C[C@H]3[C@H](N(C)C)C(O)=C(C(N)=O)C(=O)[C@@]3(O)C(O)=C1C2=O [Minocycline, 7-dimethylamino-6-dimethyl-6-deoxytetracycline] |  |  | 63 ± 6% | 0.82 ± .11 mg |  |  | 
